Assay [1] has as its system glutathione reductase (GR). Put plainly: GR activity in treated A549 cells. The class given is cell-based, human. The following applies: A549, 20 µM. An excerpt: Glutathione is an important intracellular molecule involved in carcinogen detoxification. On the other hand, its elevated state in cancer cells is often associated with resistance to chemotherapy. […] Because high levels of GSH are associated with cancer cell resistance, the GHS-depleting effect of compound 49 could be interesting due to new cancer chemosensitizer development. In the case of GST and GR, we hypothesize that an increase in the activity of both enzymes may be a compensatory mechanism induced by GSH depletion.
Both floating and adherent A549 cells were harvested at 24, 48, and 72 h after treatment with compound 49 (20 µM). SOD determination kit, Glutathione Peroxidase Cellular Activity Assay kit, Glutathione Reductase Assay Kit and Glutathione-S-transferase (GST) Assay Kit (all Sigma Aldrich, Germany) were used for the detection of relevant enzyme activity. Reduced glutathione (GSH) content was measured by the method originally described by Floreani et al.. Assays were performed on an M 501 single beam UV/VIS spectrophotometer (Spectronic Camspec Ltd., Leeds, United Kingdom). All measured parameters were calculated per milligram or gram of protein determined using the bicinchoninic acid assay.

Another assay has as its system LC3A/B. Put plainly: Western blot, LC3A/B. The class given is cell-based, human. The following applies: A549, all time periods. The text has this:
LC3A/B, a microtubule-associated protein 1A/1B-light chain 3 (LC3), is a soluble intracellular protein. After synthesis of the pro-LC3 protein, this protein is first cleaved to form its cytosolic form known as LC3-I. The cytosolic form of LC3 (LC3-I) conjugates with phosphatidylethanolamine to form the LC3-phosphatidylethanolamine conjugate (LC3-II), which is recruited to autophagosomal membranes. After the formation of autophagosomes, their fusion with lysosomes occurs, autolysosomes are formed, and intra-autophagosomal material (cytoplasmic components including cytosolic proteins and organelles) is degraded by lysosomal hydrolases. Changes in the levels of the autophagosomal marker LC3-II are considered a sign of ongoing autophagy, and its lysosomal turnover thus reflects autophagic activity. […] Association of LC3A/B up-regulation and autophagy induction has also been referred previously.
A549 cells were seeded on Petri dishes (55 cm^2) at a density of 1 × 10^6 and allowed to culture in the medium. After 24 h, the test substance was added, and the cells were incubated for 24, 48 and 72 h. […] After lysis, the cells were sonicated, and the protein concentration in the samples was quantified using the Pierce® BCA Protein Assay Kit (Thermo Scientific, Rockford, IL, USA) and measured by an automated Cytation™ 3 Cell Imaging Multi-Mode Reader (Biotek) at a wavelength of 570 nm. […]

As for `CC(C)(C)OC(=O)n1cc(CNC(=O)Nc2ccc(NC(=O)NCc3cn(C(=O)OC(C)(C)C)c4ccccc34)cc2)c2ccccc21` [Compound 49, N,N′-(1,4-phenylene)bis{N′-[1-(tert-butoxycarbonyl)indol-3-yl]methyl (urea)}], the GR came to 8.200 ± 2.97 μkat/mg Prot in assay [1] (24 h), 11.270 ± 1.04 μkat/mg Prot in assay [1] (48 h) and 10.100 ± 2.89 μkat/mg Prot in assay [1] (72 h). Moreover, the LC3A/B protein expression entry in the assay with LC3A/B is “significantly increased”.

The values are drawn from PMC9822133, “Design, Synthesis and Antiproliferative Evaluation of Bis-Indole Derivatives with a Phenyl Linker: Focus on Autophagy” (Molecules, 2022).
